Here are results for four molecules from patent US7977375B2, “Antibiotic and method of production thereof” (Helmholtz-Zentrum Für Infektionsforschung GmbH, priority 2004, dated 2011).

Values after ≈ are worked out from the molar mass of the structure shown. Like-named read-outs stand apart in the source and are kept apart here.

The subject of assay [1] is S. aureus # (own collection, methicillin-sensitive control strain). Description: agar diffusion method, inhibition zone. Format: cell-based, Staphylococcus aureus. The protocol: (§1) The agar diffusion method employing Mueller-Hinton (MH) agar (Difco Laboratories) was used to determine effectiveness against bacteria and yeasts. Sterile paper disks (Schleicher & Schüell, Germany) were seeded with 10 μl crude extract or with a solution of purified macrolactin (final compound concentration on the disk 50 μg) and then placed on the surface of MH-agar plates that had been seeded beforehand with a suspension of overnight culture of the test microorganisms at a concentration of 10^5 cells/ml.
Background: Agar diffusion results depend on both activity and mobility in agar.

The next assay concerns S. aureus DSMZ 1104. Briefly: agar diffusion method, inhibition zone. Format: cell-based, Staphylococcus aureus. The protocol:
as §1

The test system of assay [2] is MRSA 3 (methicillin-resistant S. aureus, clinical isolate). Briefly: agar diffusion method, inhibition zone. Format: cell-based, Staphylococcus aureus. The procedure: as §1
The test system of assay [3] is MRSA 2 (methicillin-resistant S. aureus, clinical isolate). Description: agar diffusion method, inhibition zone. In kind it is cell-based, Staphylococcus aureus. The protocol: as §1
Assay [4] concerns E. faecalis ATCC 29212. Briefly: agar diffusion method, inhibition zone. In kind it is cell-based, Enterococcus faecalis. The procedure:
as §1

For assay [5], the system named is E. faecalis VRAS E305. Description: agar diffusion method, inhibition zone. In kind it is cell-based, Enterococcus faecalis. The protocol: as §1
For assay [6], the system named is L929 mouse fibroblast cells. Briefly: inhibition of proliferation, CyQUANT cell proliferation test. Format: cell-based. To be noted: 5 days. The protocol: The cytotoxicity of 7-O-malonyl macrolactin A was compared to that of 7-O-succinyl macrolactin A and macrolactin A in vitro with respect to the inhibition of the proliferation of L929 mouse fibroblast cells or the human epithelial cell line HeLa.
For the cell culture, the HeLa cells were cultivated in low-glucose DMEM medium (Gibco), and the L929 cells in high-glucose DMEM medium. Both were supplemented with 10% by volume foetal calf serum (Gibco) at 37° C. in an atmosphere containing 5% CO2. The cells were extracted from stock cultures by means of trypsinization with EDTA (HeLa) or without EDTA (L929), then counted and diluted to 2×10^5 cells/ml. For the tests, microtitre plates (Nunc.) comprising 96 depressions were plated out in serial dilution without or in the presence of the test compounds or methanol. Determination of morphological alterations of the cells was carried out by means of phase contrast microscopy after 1, 2 and 5 days incubation.
After 5 days cultivation, cell counts were determined by the CyQUANT cell proliferation test (Molecular Probes), which is a highly sensitive microtitre plate test based on fluorescence. The test employs the dye CyQUANT, which, by binding to cellular nucleic acids, enhances fluorescence, which can then be measured by fluorescein excitation. The emission of fluorescence by the dye-nucleic acid complex correlated linearly with the cell count. For test purposes, the residue was carefully removed after 5 days incubation, the cells washed with PBS (phosphate buffered saline solution), the buffer removed and the cells frozen at −80° C. For the test, the cells were thawed at ambient temperature and lysated in a buffered solution containing the dye CyQUANT, in accordance with manufacturer's instructions. Fluorescence was measured by means of a fluormetric microtitre-plate reader (Titertex Fluorskan II) (excitation at 480 nm, emission at 520 nm). The […] were used to calculate the percentage of cellular proliferation in medium both alone and in the presence of serial dilutions of methanol and the macrolactin compounds. […] Proliferation was measured by means of the fluorescence-based test CyQUANT for determining viable cell counts. Table 5 illustrates the relative inhibition of proliferation as compared to a control culture comprising fresh medium without the addition of a macrolactin.

Assay [7] relates to E. faecium VRAR E315. Briefly: agar diffusion method, inhibition zone. In kind it is cell-based, Enterococcus faecium. The protocol: as §1
Assay [8] relates to B. cepacia SCV 141. Description: agar diffusion method, inhibition zone. Format: cell-based, Burkholderia cepacia. The settings on record: 18 hours at 37° C., per disk 10 μl crude extract, 50 μg macrolactin, 78 μg erythromycin, 10 μg ampicillin; for Inhibition zone: MH agar. The procedure:
as §1
The B. cepacia strain used, which is a clinical isolate from a cystic fibrosis patient, forms small colonies (SCV 141).

The test system of assay [9] is E. faecalis VRAS E305. Briefly: MIC / MBC in liquid culture. Format: cell-based, Enterococcus faecalis. To be noted: for MIC: Enterococcus faecalis.
For another assay, the system named is MRSA 2. Description: MIC / MBC in liquid culture. Format: cell-based, Staphylococcus aureus. To be noted: for MIC: Staphylococcus aureus, read-out: MIC (minimal inhibitory concentration).
The subject of the next assay is B. cepacia WT139. Description: MIC / MBC in liquid culture. Format: cell-based, Burkholderia cepacia. The text has this: (§2) 7-O-malonyl macrolactin A was not effective against some of the gram-negative bacteria tested by the inventors.
The subject of assay [10] is B. cepacia SCV 141. Briefly: MIC / MBC in liquid culture. Format: cell-based, Burkholderia cepacia.
From the text: as §2

Assay [11] relates to E. faecalis ATCC 29212. Briefly: MIC / MBC in liquid culture. In kind it is cell-based, Enterococcus faecalis. To be noted: for MIC: Enterococcus faecalis.
The subject of a further assay is MRSA 3. Briefly: MIC / MBC in liquid culture. The settings on record: for MIC: Staphylococcus aureus, read-out: MIC (minimal inhibitory concentration). Format: cell-based, Staphylococcus aureus.
In assay [12] the test system is S. aureus # (non-methicillin-resistant reference strain). Description: MIC / MBC in liquid culture. In kind it is cell-based, Staphylococcus aureus. To be noted: for MIC: Staphylococcus aureus, read-out: MIC (minimal inhibitory concentration).
In assay [13] the test system is E. faecium VRAR E315. Description: MIC / MBC in liquid culture. Format: cell-based, Enterococcus faecium. To be noted: for MIC: Enterococcus faecium.
[14] abbreviates: Staphylococcus aureus, MRSA, 18 h, read-out: Inhibition zone.

As to `CC1CCCC=CC=CC(O)CC(O)CC=CC=CC(OC(=O)CCC(=O)O)CC=CC=CC(=O)O1` (stereo not shown) [7-O-succinyl macrolactin A], the Inhibition zone was 22 mm in assay [1] (S. aureus # own collection, MH agar, 18 hours at 37° C., per disk 10 μl crude extract, 50 μg macrolactin, 78 μg erythromycin, 30 μg vancomycin, 10 μg ampicillin); 18 mm with S. aureus DSMZ 1104 (S. aureus DSMZ 1104, MH agar, 18 hours at 37° C., per disk 10 μl crude extract, 50 μg macrolactin, 78 μg erythromycin, 30 μg vancomycin, 10 μg ampicillin); 38 mm in assay [2] (MRSA 3, MH agar, 18 hours at 37° C., per disk 10 μl crude extract, 50 μg macrolactin, 78 μg erythromycin, 30 μg vancomycin, 10 μg ampicillin); 37 mm in assay [3] (MRSA 2, MH agar, 18 hours at 37° C., per disk 10 μl crude extract, 50 μg macrolactin, 78 μg erythromycin, 30 μg vancomycin, 10 μg ampicillin); 12 mm in the assay with E. faecalis ATCC 29212 [4] (E. faecalis ATCC 29212, MH agar, 18 hours at 37° C., per disk 10 μl crude extract, 50 μg macrolactin, 78 μg erythromycin, 30 μg vancomycin, 10 μg ampicillin); “no activity” in the assay with E. faecalis VRAS E305 [5] (E. faecalis VRAS E305, MH agar, 18 hours at 37° C., per disk 10 μl crude extract, 50 μg macrolactin, 78 μg erythromycin, 30 μg vancomycin, 10 μg ampicillin). The Inhibition zone is on record as 0 mm in the assay with E. faecalis VRAS E305 [5] (E. faecalis VRAS E305, MH agar, 18 hours at 37° C., per disk 10 μl crude extract, 50 μg macrolactin, 78 μg erythromycin, 30 μg vancomycin, 10 μg ampicillin, listed as 7-O-Succinyl-macrolactin A); 20 mm in the assay on E. faecium VRAR E315 [7] (E. faecium VRAR E315, MH agar, 18 hours at 37° C., per disk 10 μl crude extract, 50 μg macrolactin, 78 μg erythromycin, 30 μg vancomycin, 10 μg ampicillin); “no activity” in the assay on B. cepacia SCV 141 [8]; 0 mm in the assay with B. cepacia SCV 141 [8] (listed as 7-O-Succinyl-macrolactin A). For the same molecule, the Inhibition of proliferation in [6] (compound concentration 3.9 μg/ml) turned out to be 0%; in [6] (compound concentration 15.6 μg/ml) it was 0%; in assay [6] (compound concentration 31.25 μg/ml) it was 55%; in assay [6] (compound concentration 56.5 μg/ml) it was 83%; in assay [6] (compound concentration 125 μg/ml), 87%.
On to `CC1(C)S[C@@H]2[C@H](NC(=O)[C@H](N)c3ccccc3)C(=O)N2[C@H]1C(=O)O` [Ampicillin, ampicillin], for which the MIC with E. faecalis VRAS E305 [9] (VRASE305, E. faecalis VRAS E305, read-out: MIC (minimal inhibitory concentration)) was 0.5 µg/mL (≈ 1.43 µM); in the assay on MRSA 2 (MRSA 2), more than 128 µg/mL; with B. cepacia WT139 (Burkholderia cepacia, read-out: MIC (minimal inhibitory concentration)), more than 128 µg/mL; with B. cepacia SCV 141 [10] (Burkholderia cepacia, SCV141, read-out: MIC (minimal inhibitory concentration)), 128 µg/mL (≈ 366 µM); in the assay with E. faecalis ATCC 29212 [11] (ATCC29212, E. faecalis ATCC 29212, read-out: MIC (minimal inhibitory concentration)) it was 0.5 µg/mL (≈ 1.43 µM); in the assay on MRSA 3 (MRSA 3) it was 64 µg/mL (≈ 183 µM). Moreover, the MIC is 0.06 µg/mL (≈ 0.172 µM) in assay [12] (S. aureus #) and more than 128 µg/mL in the assay on E. faecium VRAR E315 [13] (VRARE315, E. faecium VRAR E315, read-out: MIC (minimal inhibitory concentration)). For the same molecule, the zone of inhibition at 10 µg/disc in assay [1] (Staphylococcus aureus, S. aureus # own collection, MH agar, 18 hours at 37° C., per disk 10 μl crude extract, 50 μg macrolactin, 78 μg erythromycin, 30 μg vancomycin, 10 μg ampicillin) was determined as 41 mm; in the assay with S. aureus DSMZ 1104 (Staphylococcus aureus, DSMZ1104, S. aureus DSMZ 1104, MH agar, 18 hours at 37° C., per disk 10 μl crude extract, 50 μg macrolactin, 78 μg erythromycin, 30 μg vancomycin, 10 μg ampicillin), 30 mm; in [2] (Staphylococcus aureus, MRSA 3, MH agar, 18 hours at 37° C., per disk 10 μl crude extract, 50 μg macrolactin, 78 μg erythromycin, 30 μg vancomycin, 10 μg ampicillin) it was 0 mm; in [3] (Staphylococcus aureus, MRSA 2, MH agar, 18 hours at 37° C., per disk 10 μl crude extract, 50 μg macrolactin, 78 μg erythromycin, 30 μg vancomycin, 10 μg ampicillin) it was 0 mm; in the assay with E. faecalis ATCC 29212 [4] (Enterococcus faecalis, ATCC29212, E. faecalis ATCC 29212, MH agar, 18 hours at 37° C., per disk 10 μl crude extract, 50 μg macrolactin, 78 μg erythromycin, 30 μg vancomycin, 10 μg ampicillin), 32 mm; with E. faecalis VRAS E305 [5] (Enterococcus faecalis, VRASE305, E. faecalis VRAS E305, MH agar, 18 hours at 37° C., per disk 10 μl crude extract, 50 μg macrolactin, 78 μg erythromycin, 30 μg vancomycin, 10 μg ampicillin), 35 mm. Also, the zone of inhibition at 10 µg/disc with E. faecium VRAR E315 [7] (Enterococcus faecium, VRARE315, E. faecium VRAR E315, MH agar, 18 hours at 37° C., per disk 10 μl crude extract, 50 μg macrolactin, 78 μg erythromycin, 30 μg vancomycin, 10 μg ampicillin) stood at 0 mm; with B. cepacia SCV 141 [8] (Burkholderia cepacia, SCV141, MH agar), 0 mm.
For the molecule `CN[C@H](CC(C)C)C(=O)N[C@H]1C(=O)N[C@@H](CC(N)=O)C(=O)N[C@H]2C(=O)N[C@H]3C(=O)N[C@H](C(=O)N[C@H](C(=O)O)c4cc(O)cc(O)c4-c4cc3ccc4O)[C@H](O)c3ccc(c(Cl)c3)Oc3cc2cc(c3O[C@@H]2O[C@H](CO)[C@@H](O)[C@H](O)[C@H]2O[C@H]2C[C@](C)(N)[C@H](O)[C@H](C)O2)Oc2ccc(cc2Cl)[C@H]1O` [Vancomycin, vancomycin], the MIC with E. faecalis VRAS E305 [9] (VRASE305, read-out: MIC (minimal inhibitory concentration)) was more than 128 µg/mL; in the assay on MRSA 2 (MRSA), 2 µg/mL (≈ 1.38 µM); in the assay on E. faecalis ATCC 29212 [11] (ATCC29212, read-out: MIC (minimal inhibitory concentration)) it was 2 µg/mL (≈ 1.38 µM); with MRSA 3 (MRSA) it was 1 µg/mL (≈ 0.69 µM); in assay [12] it was 0.125 µg/mL (≈ 0.0863 µM); in the assay on E. faecium VRAR E315 [13] (VRARE315, read-out: MIC (minimal inhibitory concentration)), more than 128 µg/mL. Besides, the zone of inhibition at 30 µg/disc in assay [1] (Staphylococcus aureus, 18 h, read-out: Inhibition zone) is 27 mm; in the assay on S. aureus DSMZ 1104 (Staphylococcus aureus, DSMZ1104, 18 h, read-out: Inhibition zone), 20 mm; in [2] (setting [14]), 24 mm; in assay [3] (setting [14]) it was 24 mm; in the assay with E. faecalis ATCC 29212 [4] (Enterococcus faecalis, ATCC29212, 18 h, read-out: Inhibition zone), 24 mm; in the assay with E. faecalis VRAS E305 [5] (Enterococcus faecalis, VRASE305, 18 h, read-out: Inhibition zone), 0 mm. Further, the zone of inhibition at 30 µg/disc in the assay on E. faecium VRAR E315 [7] (Enterococcus faecium, VRARE315, 18 h, read-out: Inhibition zone) came to 0 mm.
As to Gentamycin, the “MIC (minimal inhibitory concentration)” value against E. faecalis VRAS E305 [9] (E. faecalis VRAS E305) is 64 µg/mL; in the assay on MRSA 2 (MRSA 2) it was 128 µg/mL; with B. cepacia WT139, more than 128 µg/mL; against B. cepacia SCV 141 [10], more than 128 µg/mL; against E. faecalis ATCC 29212 [11] (E. faecalis ATCC 29212) it was 32 µg/mL; in the assay on MRSA 3 (MRSA 3), 128 µg/mL. The figures for the “MIC (minimal inhibitory concentration)” value (in assay [12] (S. aureus #); against E. faecium VRAR E315 [13] (E. faecium VRAR E315)) were 0.25 µg/mL and 64 µg/mL, respectively.
